Experimental data as given in patent publication EP0393575B1, “Neoplasia treatment compositions containing antineoplastic agent and side-effect reducing protective agent” (priority 1989, dated 1990).
Like-named read-outs stand apart in the source and are kept apart here.

Tests used:
[1] = tested on: MIA C51 cell line; test: Trial VI: survival of rats inoculated with tumor cells; format: in vivo; conditions: Adriamycin 10 mg/kg i.v. Day One Only
Experimental: Rats were inoculated with a million cells of MIA C51 cell line. Thereafter, animals were treated with saline control, carbetimer alone at 1700 mg/kg in days 1-5, or adriamycin at 10 mg/kg i.v., or adriamycin 10 mg/kg i.v. plus carbetimer at 1700 mg/kg i.p. Animals treated with the combination of carbetimer and adriamycin remained alive 40 days after treatment. The combination therapy provided greater tumor remission than carbetimer alone or adriamycin alone, indicating two drugs may act in an additive or synergistic manner to cure tumors in tumor-bearing rats. Data are reported in Table VI and depicted in Figure 6.

[2] = tested on: normal BDF₁ mice
Experimental: The effect of carbetimer on acute adriamycin toxicity in normal BDF₁ mice was evaluated. Normal BDF₁ mice were treated with carbetimer alone at 1700 mg/kg i.p. with adriamycin alone at 21 mg/kg i.v. or the combination of the two drugs, carbetimer being given half an hour before adriamycin. […] Data are reported in Table I and depicted in Figure 1.

[3] = tested on: normal BDF₁ mice; remark: listed apart in the source
Experimental: The effect of carbetimer on sub-acute adriamycin toxicity in normal BDF₁ mice was evaluated. Normal BDF₁ mice were treated either with adriamycin alone at 21 mg/kg i.v. or with adriamycin at 21 mg/kg i.v. plus carbetimer 500 mg/kg i.v. given concurrently. […]

[4] = tested on: normal BDF₁ mice; remark: listed apart in the source
Experimental: (§1) The effect of carbetimer on sub-acute adriamycin toxicity in normal BDF₁ mice was evaluated. Normal BDF₁ mice were treated either with adriamycin alone at 21 mg/kg i.v. or with adriamycin at 21 mg/kg i.v. plus carbetimer 250 mg/kg i.v. given concurrently. […] Data are reported in Table III in absolute weights of animals and depicted in Figure 3 in terms of percent of original weights of the animals.

[5] = tested on: normal BDF₁ mice; remark: listed apart in the source
Experimental: as §1, with “125” for “250”, “IV” for “III”, “4” for “3”

[6] = lethal dose of adriamycin alone, 21 mg/kg i.v.
[7] = Adriamycin alone 21 mg/kg i.v., Day 6

Compound: COc1cccc2c1C(=O)c1c(O)c3c(c(O)c1C2=O)C[C@@](O)(C(=O)CO)C[C@@H]3O[C@H]1C[C@H](N)[C@H](O)[C@H](C)O1 [Adriamycin, doxorubicin]
- % Rats Alive After Treatment ([1]; Days 0-8): 100%
- % Rats Alive After Treatment ([1]; Days 9-10): 100%
- % Rats Alive After Treatment ([1]; Days 11-26): 100%
- % Rats Alive After Treatment ([1]; Days 27-29): 80%
- % Rats Alive After Treatment ([1]; Days 30-32): 0%
- % Rats Alive After Treatment ([1]; Days 33-40): 0%
- % Rats Alive After Treatment ([1]; Days 41-43): 0%
- mortality ([2]; Adriamycin 21 mg/kg i.v., 7 days post-treatment): all dead
- time to death from start of the therapy [2, 6]: ≤ 8 days
- mortality [3, 7]: all dead
- time to death from start of the therapy [3, 6]: ≤ 8 days
- mortality ([4]; Adriamycin alone 21 mg/kb i.v., Day 6): all dead
- time to death from start of the therapy [4, 6]: ≤ 8 days
- mortality [5, 7]: all dead
- time to death from start of the therapy [5, 6]: ≤ 10 days
